What was measured:
Plasmepsin II = Plasmepsin II (Plasmodium falciparum, UniProt P46925); assay: Inhibition of Plasmodium falciparum plasmepsin-2
Plasmodium falciparum = assay: Antimicrobial activity against Plasmodium falciparum in erythrocytes; format: functional, organism-based
[1] = system: Human immunodeficiency virus 1; assay: Inhibition of HIV1 protease at 50 nM
[2] = Selectivity for Plasmodium falciparum plasmepsin-2 over human cathepsin D

Chain of Plasmepsin II (P46925 whole entry): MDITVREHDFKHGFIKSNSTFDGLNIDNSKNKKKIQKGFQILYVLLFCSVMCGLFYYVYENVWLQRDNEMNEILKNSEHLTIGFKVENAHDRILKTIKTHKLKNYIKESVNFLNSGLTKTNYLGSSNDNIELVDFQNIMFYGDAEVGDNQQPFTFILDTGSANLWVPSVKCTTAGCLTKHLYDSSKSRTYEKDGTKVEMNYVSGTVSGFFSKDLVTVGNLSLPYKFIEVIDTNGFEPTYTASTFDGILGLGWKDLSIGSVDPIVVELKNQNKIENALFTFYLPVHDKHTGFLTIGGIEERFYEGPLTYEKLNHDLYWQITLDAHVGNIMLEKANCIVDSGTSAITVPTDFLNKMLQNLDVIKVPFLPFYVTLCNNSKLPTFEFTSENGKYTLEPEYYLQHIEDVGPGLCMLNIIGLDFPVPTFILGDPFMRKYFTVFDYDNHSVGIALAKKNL

| SMILES | Ki (Plasmepsin II) [nM] | EC50 (Plasmodium falciparum) [nM] | inhibition [1] [%] | Ratio [2] |
| --- | --- | --- | --- | --- |
| CSC[C@H](NC(=O)OC1CCCCC1)C(=O)N[C@@H](Cc1ccccc1)[C@H](O)C(=O)N1CSC(C)(C)[C@H]1C(=O)N[C@H]1c2ccccc2C[C@H]1O | 5 |  | 56 |  |
| CSC[C@H](NC(=O)c1cc(=O)c2ccccc2o1)C(=O)N[C@@H](Cc1ccccc1)[C@H](O)C(=O)N1CSC(C)(C)[C@H]1C(=O)N[C@H]1c2ccccc2C[C@H]1O | 9 |  | 99 |  |
| CSC[C@H](NC(=O)Cc1ccccc1)C(=O)N[C@@H](Cc1ccccc1)[C@H](O)C(=O)N1CSC(C)(C)[C@H]1C(=O)N[C@H]1c2ccccc2C[C@H]1O | ≤ 0.1 |  | 85 |  |
| CSC[C@H](NC(=O)COc1cccc2cnccc12)C(=O)N[C@@H](Cc1ccccc1)[C@H](O)C(=O)N1CSC(C)(C)[C@H]1C(=O)NC(C)(C)C | 36 |  |  | 50 |
| CSC[C@H](NC(=O)Cc1ccc(N)cc1)C(=O)N[C@@H](Cc1ccccc1)[C@H](O)C(=O)N1CSC(C)(C)[C@H]1C(=O)N[C@H]1c2ccccc2C[C@H]1O | ≤ 0.1 |  | 68 |  |
| CSC[C@H](NC(=O)Cc1ccc(O)cc1)C(=O)N[C@@H](Cc1ccccc1)[C@H](O)C(=O)N1CSC(C)(C)[C@H]1C(=O)N[C@H]1c2ccccc2C[C@H]1O | ≤ 0.1 |  | 88 |  |
| CSC[C@H](NC(=O)COc1cccc2cnccc12)C(=O)N[C@@H](Cc1ccccc1)[C@H](O)C(=O)N1CSC[C@H]1C(=O)NC(C)(C)C | 1000 |  |  |  |
| CSC[C@H](NC(=O)Cc1ccccc1O)C(=O)N[C@@H](Cc1ccccc1)[C@H](O)C(=O)N1CSC(C)(C)[C@H]1C(=O)N[C@H]1c2ccccc2C[C@H]1O | 16 |  | 86 |  |
| COc1ccc(CC(=O)N[C@@H](CSC)C(=O)N[C@@H](Cc2ccccc2)[C@H](O)C(=O)N2CSC(C)(C)[C@H]2C(=O)N[C@H]2c3ccccc3C[C@H]2O)cc1 | 4 |  | 91 |  |
| CSC[C@H](NC(=O)COc1cccc(Nc2ccccc2)c1)C(=O)N[C@@H](Cc1ccccc1)[C@H](O)C(=O)N1CSC(C)(C)[C@H]1C(=O)N[C@H]1c2ccccc2C[C@H]1O | 15 |  | 98 |  |

More lines, now with the values ahead:

| Ki (Plasmepsin II) [nM] | EC50 (Plasmodium falciparum) [nM] | inhibition [1] [%] | Ratio [2] | SMILES |
| --- | --- | --- | --- | --- |
| 0.5 | 6800 |  |  | Cc1cccc(C)c1OCC(=O)N[C@@H](Cc1ccccc1)[C@H](O)C(=O)N1CSC(C)(C)[C@H]1C(=O)N[C@H]1c2ccccc2C[C@H]1O |
| 17 |  | 88 |  | COc1cccc(CC(=O)N[C@@H](CSC)C(=O)N[C@@H](Cc2ccccc2)[C@H](O)C(=O)N2CSC(C)(C)[C@H]2C(=O)N[C@H]2c3ccccc3C[C@H]2O)c1 |
| 9 |  | 81 |  | COc1ccccc1CC(=O)N[C@@H](CSC)C(=O)N[C@@H](Cc1ccccc1)[C@H](O)C(=O)N1CSC(C)(C)[C@H]1C(=O)N[C@H]1c2ccccc2C[C@H]1O |
| 5 |  | 88 |  | CSC[C@H](NC(=O)Cc1ccc(C)cc1)C(=O)N[C@@H](Cc1ccccc1)[C@H](O)C(=O)N1CSC(C)(C)[C@H]1C(=O)N[C@H]1c2ccccc2C[C@H]1O |
| 3 | 3100 | 99 |  | CSC[C@H](NC(=O)COc1cccc2cnccc12)C(=O)N[C@@H](Cc1ccccc1)[C@H](O)C(=O)N1CSC(C)(C)[C@H]1C(=O)N[C@H]1c2ccccc2C[C@H]1O |
| 4 |  | 84 |  | CSC[C@H](NC(=O)Cc1cccc(O)c1)C(=O)N[C@@H](Cc1ccccc1)[C@H](O)C(=O)N1CSC(C)(C)[C@H]1C(=O)N[C@H]1c2ccccc2C[C@H]1O |
| 18 |  | 87 |  | CSC[C@H](NC(=O)Cc1cccc(C)c1)C(=O)N[C@@H](Cc1ccccc1)[C@H](O)C(=O)N1CSC(C)(C)[C@H]1C(=O)N[C@H]1c2ccccc2C[C@H]1O |
| 0.2 | 4700 | 83 |  | CSC[C@H](NC(=O)Cc1ccccc1C)C(=O)N[C@@H](Cc1ccccc1)[C@H](O)C(=O)N1CSC(C)(C)[C@H]1C(=O)N[C@H]1c2ccccc2C[C@H]1O |
| 12 |  | 76 |  | CSC[C@H](NC(=O)Cc1cccc(N)c1)C(=O)N[C@@H](Cc1ccccc1)[C@H](O)C(=O)N1CSC(C)(C)[C@H]1C(=O)N[C@H]1c2ccccc2C[C@H]1O |
| 4 |  | 86 |  | CSC[C@H](NC(=O)Cc1ccccc1N)C(=O)N[C@@H](Cc1ccccc1)[C@H](O)C(=O)N1CSC(C)(C)[C@H]1C(=O)N[C@H]1c2ccccc2C[C@H]1O |

From ChEMBL document CHEMBL1144647, “Additional interaction of allophenylnorstatine-containing tripeptidomimetics with malarial aspartic protease plasmepsin II” (Bioorg Med Chem Lett, 2007)
